Data: patent publication US11446352B2, “Compositions and methods for inhibiting tumor-induced immune suppression” (priority 2017, dated 2022)

What was measured:
IDO-GFP fusion protein = format: cell-based; details: HEK 293 cells
Experimental: FIG. 3A-3B are autoradiographs of a Western blot showing expression of the indicated proteins in control (left lane) and 0.5 μM EnnA-treated (right lane) E0771 (FIG. 3A) and AT3 (FIG. 3B) cells. FIG. 3C is a graph showing FACS analysis of PD-L1 level in AT3 cells. FIGS. 3D-3K are graphs showing qPCR analysis of the mRNA level of cytokines TNFa (FIG. 3D), IL-6 (FIG. 3E), TGFb1 (FIG. 3F) and IL-10 (FIG. 3G), the chemokines S100a9 (FIG. 3J) and CCL3 (FIG. 3K), as well as PDL1 (FIG. 3H) and IDO (FIG. 3I). FIGS. 3L-3Q are micrographs of HEK293 cells transiently transfected with GFP-IDO fusion protein expressing or GFP alone plasmids for 24 h. Cells were then treated with 5 μM EnnA for 6 h and analyzed for green fluorescence and bright light. FIG. 3R is a line graph of μg/ml of tryptophan and its IDO-mediated product kynurenine using the previously reported HPLC-based assay.
Western blot analysis (FIG. 3A-3B) confirmed that EnnA destabilizes pAKT and reduces the protein expression of Hsp40 in E0771 and AT3. […] It also reduces the mRNA level of the chemokines S100a9 and CCL3 (FIG. 3J-3K). Importantly, EnnA reduces the mRNA and protein levels of the key immunological checkpoint component PDL-1 (FIG. 3H). Similar results were obtained with EMT6 (not shown). […]

E0771 tumors = assay: E0771 tumor model in immunocompromised nude mice; format: in vivo; details: 10 mg/kg every other day
Experimental: 50,000 E0771 cells were surgically implanted in mammary fad pad of 10 C57BL/6 immunocompetent mice and 10 immunocompromised nude mice. 12 days after surgery, B6 and nude mice were divided into two groups each. the EnnA group was injected with 10 mg/kg of EnnA every other day, and the control group received a mixture of 15% DMSO and 20% cremophor in PBS.

[1] = test system: E0771 tumor microenvironment; assay: analysis of tumors and splenocytes from EnnA-treated mice (Western blot, FACS, immunohistochemistry, immunofluorescence); format: in vivo
Experimental: FIG. 5A is a line graph of tumor volume (mm^3) versus time (days) of mice injected with 100,000 E0771. Ten days after surgery, mice were divided into two groups: the EnnA group was injected with 10 mg/kg of EnnA. every other day, and the control group received a mixture of 15% DMSO and 20% cremophor in PBS. FIG. 5B is a line graph of body weight versus time (days) of mice treated with DMSO or EnnA. FIG. 5C is autoradiograph of a Western blot of four animals from each group using the indicated specific antibodies. FIG. 5D is a bar graph of % of gated cells treated with DMSO or EnnA showing FACS analysis of tumor cells for PDL1. FIG. 5E-5J is a panel of micrographs showing immunohistochemistry analysis of H&E staining of tumors from control and EnnA mice for analysis of necrotic tissue. FIGS. 5K-5P is a panel of micrographs showing immunohistochemistry analysis of tumors from control and EnnA mice for analysis of immune cells infiltration using anti-CD45 antibody. FIG. 5Q is a bar graph of % of gated cells treated with DMSO showing that EnnA treatment reduces CD4+/Foxp3+ Tregs. FIG. 5R is a bar graph of % of gated cells treated with DMSO or EnnA showing that EnnA treatment reduces CD11b+Gr-1+ MDSCs. FIG. 5S is a bar graph of % of gated cells treated with DMSO or EnnA showing that EnnA treatment reduces the number of CD8+/PD-1+ lymphocytes. FIG. 5T is a bar graph of % of cells treated with DMSO or EnnA showing that EnnA treatment increase the number of GR-1-CD11c+CD103+ lymphocytes.
FIGS. 8A-8L show immunofluorescent staining of E0771 tumors using anti-CD45 and anti-CD8β antibodies. FIGS. 8M-8T show immunofluorescent staining of E0771 tumors using anti-CD45 and anti-CTLA-4 antibodies. […] FIG. 8V is a bar graph showing the results of FACS analysis of CD8 positive cells in E0771 tumor-bearing mice treated with DMSO, EnnA, αCD8, or EnnA+αCD8. The X axis represents treatment group and the Y axis represents percent CD8 positive cells. FIG. 8W is a model for EnnA inhibition of Hsp 90 machinery and its impacts on the immune suppressive mechanism through PD-1 and IDO.
100,000 E0771 cells were surgically implanted in mammary fat pad of 20 mice. Ten days after surgery, mice were divided into two groups: the EnnA group was injected with 10 mg/kg of EnnA every other day, and the control group received a mixture of 15% DMSO and 20% cremophor in PBS.

CC[C@H](C)[C@H]1C(=O)O[C@H](C(C)C)C(=O)N(C)[C@@H]([C@@H](C)CC)C(=O)O[C@H](C(C)C)C(=O)N(C)[C@@H]([C@@H](C)CC)C(=O)O[C@H](C(C)C)C(=O)N1C [EnnA, Enniatin A]
IDO-GFP green fluorescence (IDO-GFP fusion protein; 5 μM EnnA, 6 h): dramatic loss
cell death (IDO-GFP fusion protein; early time point (6 h)): No significant cell death
anti-tumor activity (tumor volume) (E0771 tumors): no significant anti-tumor activity
PD-1 expression of infiltrating CD8+ lymphocytes ([1]; FACS): lower levels
number of CD4+Foxp3+ T regulatory cells (Tregs) in tumors ([1]; FACS): significantly reduced
number of MDSCs in tumors ([1]; FACS, CD11b+Gr-1+): significantly reduced
number of GR-1-CD11c+CD103+ lymphocytes ([1]; FACS, FIG. 5T): increase
tumor necrosis ([1]; H&E staining): heavily necrotic
Hsp90 client proteins in tumors ([1]; Western blot of tumors from treated mice): destabilized
infiltration of tumors by T lymphocytes ([1]; anti-CD45 immunohistochemistry): massive infiltration
infiltration of tumors with CD45+, CD8β+ T cells ([1]; immunofluorescent staining): higher infiltration
proportion of CD8β cells in spleenocytes ([1]; tumor bearing animals, FACS): increase
PD-L1 and IDO in vivo ([1]; tumors, Western blot and FACS): destabilizes
